According to patent US11746116B2, “Antibiotic resistance breakers” (KING'S COLLEGE LONDON, priority 2017, dated 2023):
“And” between values parts separate entries of the source, which are not always exact repeats. Equal entries are not always repeated.

How the values were obtained:
[1] = Single dose pharmacokinetics study, intravenous route; settings: 5 mg/kg
[2] = target: Safetyscreen44 off target panel (Homo sapiens, UniProt Q12809); test: Safetyscreen44, potential off target toxicity (Table 27)
[3] = Male CD1 mouse, blood, Composite Mean
[4] = male, CD-1 (ICR), mouse, in vivo

Sequence of Safetyscreen44 off target panel (Q12809 whole entry): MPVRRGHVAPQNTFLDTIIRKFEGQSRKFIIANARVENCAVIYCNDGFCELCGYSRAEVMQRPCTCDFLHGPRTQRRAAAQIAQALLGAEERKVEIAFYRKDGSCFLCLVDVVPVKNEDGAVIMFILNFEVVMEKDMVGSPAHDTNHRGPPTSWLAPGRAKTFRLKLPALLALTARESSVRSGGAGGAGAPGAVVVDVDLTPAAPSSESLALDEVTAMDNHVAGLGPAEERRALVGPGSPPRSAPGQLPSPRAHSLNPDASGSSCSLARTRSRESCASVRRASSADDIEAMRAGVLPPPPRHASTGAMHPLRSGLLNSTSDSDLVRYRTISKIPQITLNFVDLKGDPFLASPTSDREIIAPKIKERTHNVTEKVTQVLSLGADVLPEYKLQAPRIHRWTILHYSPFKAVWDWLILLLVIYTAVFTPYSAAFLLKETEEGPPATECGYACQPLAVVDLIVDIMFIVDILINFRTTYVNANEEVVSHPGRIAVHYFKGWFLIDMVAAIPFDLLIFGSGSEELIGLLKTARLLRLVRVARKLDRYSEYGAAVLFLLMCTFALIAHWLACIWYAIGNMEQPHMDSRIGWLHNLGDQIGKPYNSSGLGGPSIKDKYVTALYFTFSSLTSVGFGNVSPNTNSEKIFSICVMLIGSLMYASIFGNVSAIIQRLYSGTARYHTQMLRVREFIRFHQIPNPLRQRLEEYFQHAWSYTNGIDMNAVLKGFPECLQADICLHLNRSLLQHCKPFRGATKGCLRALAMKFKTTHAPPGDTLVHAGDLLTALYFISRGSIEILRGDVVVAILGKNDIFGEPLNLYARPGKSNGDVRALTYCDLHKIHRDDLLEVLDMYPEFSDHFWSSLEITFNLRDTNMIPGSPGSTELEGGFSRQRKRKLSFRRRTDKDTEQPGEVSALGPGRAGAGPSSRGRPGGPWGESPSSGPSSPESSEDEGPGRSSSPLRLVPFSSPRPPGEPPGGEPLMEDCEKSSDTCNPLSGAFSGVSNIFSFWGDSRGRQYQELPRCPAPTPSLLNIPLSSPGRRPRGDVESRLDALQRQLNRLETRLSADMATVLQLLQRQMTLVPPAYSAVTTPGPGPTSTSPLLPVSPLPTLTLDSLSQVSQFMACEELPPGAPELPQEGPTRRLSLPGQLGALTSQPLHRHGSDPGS

## C[C@H]1COc2c(N3CC[C@@H](Nc4ncccn4)C3)c(F)cc3c(=O)c(C(=O)O)cn1c23 [KSN-82-L22]
[1]; [3]
  Blood CL: 12.5 mL/min/kg
  Clast: 286 ng/mL
[1]; [4]
  AUC: 6420 ng·h/mL and 15.1 µM·h
  AUC(0-inf): 15.7 µM·h
  Cmax: 9390 ng/mL and 22.1 µM
  MRT: 1.8 h
  half-life: 0.6 h
[2]
  % inhibition, Potassium Channel hERG (human)-[3H] Dofetilide: −0.2461%
